Here are results for 16 compounds from patent US9284308B2, “Methylene linked quinolinyl modulators of RORγt” (Janssen Pharmaceutica NV, priority 2013, dated 2016).

The target of test [1] is T1, human RORγt ligand binding domain (RORγt LBD) (Homo sapiens, UniProt P51449).
T1 construct: His-tag (N); TurboTEV protease cleavage site (ENLYFQG) (N); made in house; host or cells: E. coli (pHIS1, modified pET vector)
T1 sequence (P51449 with tags, fused parts or gaps): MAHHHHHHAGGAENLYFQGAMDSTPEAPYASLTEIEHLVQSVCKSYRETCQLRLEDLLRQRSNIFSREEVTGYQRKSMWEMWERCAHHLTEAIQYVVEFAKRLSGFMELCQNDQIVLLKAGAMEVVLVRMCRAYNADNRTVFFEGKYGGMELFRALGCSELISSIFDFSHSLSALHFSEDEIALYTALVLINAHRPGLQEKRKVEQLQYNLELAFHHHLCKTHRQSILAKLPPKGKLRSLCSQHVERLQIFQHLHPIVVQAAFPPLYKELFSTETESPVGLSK
The experiment in a line: RORγt ThermoFluor assay (ligand binding affinity from protein thermal stability). Here is the method:
This approach is applicable to a wide variety of systems, and rigorous in theoretical interpretation through quantitation of equilibrium binding constants (KD).
The shift in the melting point described as a ΔTm is proportional to the concentration and affinity of the ligand.
RORγt ThermoFluor® Assay Construct
Protein and compound solutions are dispensed into black 384-well polypropylene PCR microplates (Abgene) and overlayed with silicone oil (1 μL, Fluka, type DC 200) to prevent evaporation.
Bar-coded assay plates are robotically loaded onto a thermostatically controlled PCR-type thermal block and then heated at a typical ramp-rate of 1° C./min for all experiments. Fluorescence was measured by continuous illumination with UV light (Hamamatsu LC6) supplied via fiber optic and filtered through a band-pass filter (380-400 nm; >6 OD cutoff). Fluorescence emission of the entire 384-well plate was detected by measuring light intensity using a CCD camera (Sensys, Roper Scientific) filtered to detect 500±25 nm, resulting in simultaneous and independent readings of all 384 wells. Images were collected at each temperature, and the sum of the pixel intensity in a given area of the assay plate was recorded versus temperature. Reference wells contained RORγt without compounds, and the assay conditions were as follows: • 0.065 mg/mL RORγt • 60 μM 1,8-ANS • 100 mM Hepes, pH 7.0 • 10 mM NaCl • 2.5 mM GSH • 0.002% Tween-20
Project compounds were arranged in a pre-dosed mother plate (Greiner Bio-one) wherein compounds are serially diluted in 100% DMSO by 1:2 from a high concentration of 10 mM over 12 columns within a series (column 12 is a reference well containing DMSO, no compound). The compounds were robotically dispensed directly into assay plates (1×=[…]) using a Hummingbird capillary liquid handling instrument (Digilab). Following compound dispense, protein and dye in buffer was added to achieve the final assay volume of 3 μL, followed by 1 μL of silicone oil.

In a further test the target is T2, human RORγt LBD (Homo sapiens, UniProt P51449).
T2 construct: expressed in transfected cells; host or cells: HEK293T
T2 sequence (P51449 258-518): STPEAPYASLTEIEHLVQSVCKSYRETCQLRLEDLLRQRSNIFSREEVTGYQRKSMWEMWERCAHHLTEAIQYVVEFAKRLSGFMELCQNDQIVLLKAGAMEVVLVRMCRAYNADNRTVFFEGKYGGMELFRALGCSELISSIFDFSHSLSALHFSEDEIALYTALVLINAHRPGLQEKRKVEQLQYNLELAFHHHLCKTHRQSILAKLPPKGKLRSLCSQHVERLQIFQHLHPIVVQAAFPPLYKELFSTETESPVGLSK
Kind of test: RORγt (LBD) reporter assay in HEK293T cells. The test is classed as cell-based. The note with it: for inhibition at 6 µM: HEK-293T, read-out: RORγt (LBD) Reporter Assay, % inhibition @ 6 μM, 6 μM compound; for RORγt (LBD) Reporter Assay, % inhibition @ 6 μM: 6 μM compound. The source says: RORγt (LBD) Reporter Assay
Cells used in the assay were co-transfected with two constructs. The first construct, pBIND-RORγt LBD, contained the wild type human RORγt LBD fused to the DNA binding domain of the GAL4 protein. The second construct, pGL4.31 (Promega Cat no. C935A), contained multiple GAL4 responsive DNA elements upstream of firefly luciferase. […] The mutant construct was called pBIND-RORγt-AF2.
The pBIND vector contains the GAL4 DNA Binding Domain (GAL4 DBD) and the renilla luciferase gene under control of the SV40 promoter. Renilla luciferase expression serves as a control for transfection efficiency and cell viability.
The reporter assay was performed by transiently transfecting HEK293T cells with 5 μg of pBIND-RORγt LBD or pBIND-RORγt LBD-AF2 and 5 μg pGL4.31 (Promega Cat no. C935A) using Fugene 6 (Invitrogen Cat no. E2691) at a 1:6 ratio of DNA:Fugene 6 in a T-75 flask in which cells were at least 80% confluent. Twenty four hours after bulk transfection, cells were plated into 96-well plates at 50,000 cells/well in phenol-red free DMEM containing 5% Lipid Reduced FCS and Pen/Strep. Six hours after plating, cells were treated with compounds for 24 hours. Media was removed and cells were lysed with 50 μL 1× Glo Lysis Buffer (Promega). Dual Glo Luciferase Reagent (50 μL/well) was then added and firefly luciferase luminescence was read on an Envision after a ten minute incubation. Finally, Stop and Glo reagent (50 μL/well) was added and renilla luciferase luminescence was read on an Envision after a ten minute incubation. […] Agonist compounds increase RORγt-driven luciferase expression, and antagonist or inverse agonist compounds decrease luciferase expression.

Where “and” joins values, the source holds several entries; their conditions need not be identical. Equal entries are not always repeated. Structures can show the parent of a compound that is named as a salt.

Compound `CNC(c1ccc2nc(OC)c(Cc3ccc(C(F)(F)F)cc3)c(Cl)c2c1)(c1ccc(C)nc1C)c1cnnn1C` (single isomer, unassigned) [Example 121c, 1-(4-Chloro-2-methoxy-3-(4-(trifluoromethyl)benzyl)quinolin-6-yl)-1-(2,6-dimethylpyridin-3-yl)-N-methyl-1-(1-methyl-1H-1,2,3-triazol-5-yl)methanamine•TFA] gave a Kd in test [1] of 130 nM. Also, the IC50 at human RORγt LBD came to 220 nM.

In the case of `Cn1cncc1C(O)(c1ccc(C(F)(F)F)nc1)c1ccc2nc(-c3nccn3C)c(Cc3ccccc3)c(Cl)c2c1` (single isomer, unassigned) [Example 113c, (3-Benzyl-4-chloro-2-(1-methyl-1H-imidazol-2-yl)quinolin-6-yl)(1-methyl-1H-imidazol-5-yl)(6-(trifluoromethyl)pyridin-3-yl)methanol•TFA], binding in test [1] was put at a Kd of 1200 nM. The compound also came in with an IC50 against human RORγt LBD of roughly 2000 nM.

Regarding `Cn1cncc1C(O)(c1ccc(C(F)(F)F)nc1)c1ccc2nc(-n3cccn3)c(Cc3ccccc3)c(C#N)c2c1` (single isomer, unassigned) [Example 114c, 3-Benzyl-6-(hydroxy(1-methyl-1H-imidazol-5-yl)(6-(trifluoromethyl)pyridin-3-yl)methyl)-2-(1H-pyrazol-1-yl)quinoline-4-carbonitrile•TFA], in test [1], binding was put at a Kd of 710 nM. The compound also displayed an IC50 at human RORγt LBD of 1900 nM.

In the case of `CCN(CC)c1nc2ccc(C(O)(c3ccc(Cl)cc3)c3cncn3C)cc2c(C#N)c1Cc1ccc(-n2cccn2)cc1` (single isomer, unassigned) [Example 154c, 3-(4-(1H-pyrazol-1-yl)benzyl)-6-((4-chlorophenyl)(hydroxy)(1-methyl-1H-imidazol-5-yl)methyl)-2-(diethylamino)quinoline-4-carbonitrile], on human RORγt LBD, the inhibition at 6 µM was 73%.

For the compound `COc1nc2ccc(C(O)(c3cnnn3C)c3cnc(C)n3C)cc2c(Cl)c1Cc1ccc(F)cc1` (single isomer, unassigned) [Example 65b], binding in test [1] was characterised by a dissociation constant (Kd) of 0.095 nM. For the same compound, on human RORγt LBD, half-maximal inhibition (IC50) required 22 nM and the inhibition at 6 µM stood at 74%.

In turn, `COc1nc2ccc(C(O)(c3ccccn3)c3cncn3C)cc2c(Cl)c1Cc1ccc(C(F)(F)F)cc1` (centres unmarked) [Example 68, (4-Chloro-2-methoxy-3-(4-(trifluoromethyl)benzyl)quinolin-6-yl)(1-methyl-1H-imidazol-5-yl)(pyridin-2-yl)methanol•TFA] registered a Kd in test [1] of 53 nM. Also, at human RORγt LBD, the 50% inhibitory concentration (IC50) was determined as 65 nM and the inhibition at 6 µM was determined as 101%.

In the case of `COc1nc2ccc(C(O)(c3ccc(C)nc3C)c3cnnn3C)cc2c(C#N)c1Cc1ccc(F)cc1` (single isomer, unassigned) [Example 49b, 6-((2,6-Dimethylpyridin-3-yl)(hydroxy)(1-methyl-1H-1,2,3-triazol-5-yl)methyl)-3-(4-fluorobenzyl)-2-methoxyquinoline-4-carbonitrile], binding in test [1] was characterised by a dissociation constant (Kd) of 410 nM. In addition, at human RORγt LBD, the 50% inhibitory concentration (IC50) was roughly 3000 nM and the “RORγt (LBD) Reporter Assay, % inhibition @ 6 μM” value (from here on “RORγt … % inhibition @ 6 μM”) was found to be 62%.

`COc1nc2ccc(C(O)(c3cnnn3C)c3cnc(C)n3C)cc2c(Cl)c1Cc1ccc(F)cc1` (single isomer, unassigned) [Example 65c]: in test [1], the affinity, expressed as Kd, was 0.48 nM. This compound also yielded an IC50 on human RORγt LBD of 7.2 nM.

Turning to `CNC(c1ccc2nc(OC)c(Cc3ccc(C(F)(F)F)cc3)c(Cl)c2c1)(c1ccc(C)nc1C)c1cnnn1C` (single isomer, unassigned) [Example 121b, 1-(4-Chloro-2-methoxy-3-(4-(trifluoromethyl)benzyl)quinolin-6-yl)-1-(2,6-dimethylpyridin-3-yl)-N-methyl-1-(1-methyl-1H-1,2,3-triazol-5-yl)methanamine•TFA], the Kd in test [1] was 370 nM. Inhibition at human RORγt LBD was half-maximal at 410 nM (IC50).

Compound `COc1nc2ccc(C(O)(c3ccc(C)nc3C)c3cnnn3C)cc2c(C#N)c1Cc1ccc(F)cc1` (single isomer, unassigned) [Example 49c, 6-((2,6-Dimethylpyridin-3-yl)(hydroxy)(1-methyl-1H-1,2,3-triazol-5-yl)methyl)-3-(4-fluorobenzyl)-2-methoxyquinoline-4-carbonitrile] showed a Kd in test [1] of 2.7 nM. At human RORγt LBD, the concentration for half-maximal inhibition (IC50) was 38 nM and ~20 nM; the “RORγt … % inhibition @ 6 μM” value is listed as 83%.

As to `COc1c(Cc2ccccc2)c(C(F)(F)F)nc2ccc(C(O)(c3ccc(Cl)cc3)c3cncn3C)cc12` (single isomer, unassigned) [Example 101c, (3-Benzyl-4-methoxy-2-(trifluoromethyl)quinolin-6-yl)(4-chlorophenyl)(1-methyl-1H-imidazol-5-yl)methanol], the “RORγt … % inhibition @ 6 μM” value on human RORγt LBD amounted to 89%.

The compound `COc1nc2ccc(C(N)(c3ccc(C(F)(F)F)nc3)c3cncn3C)cc2c(Cl)c1Cc1ccccc1` (single isomer, unassigned) [Example 120b, (3-Benzyl-4-chloro-2-methoxyquinolin-6-yl)(1-methyl-1H-imidazol-5-yl)(6-(trifluoromethyl)pyridin-3-yl)methanamine•TFA] had a Kd in test [1] of 130 nM. For the same compound, the IC50 at human RORγt LBD was greater than 6000 nM.

`COc1nc2ccc(C(c3ccc(C)nc3C)(c3cnnn3C)N(C)C)cc2c(Cl)c1Cc1ccc(C(F)(F)F)cc1` (single isomer, unassigned) [Example 122c, 1-(4-Chloro-2-methoxy-3-(4-(trifluoromethyl)benzyl)quinolin-6-yl)-1-(2,6-dimethylpyridin-3-yl)-N,N-dimethyl-1-(1-methyl-1H-1,2,3-triazol-5-yl)methanamine•TFA]: binding in test [1] was characterised by a dissociation constant (Kd) of 2.2 nM. The compound further showed an IC50 against human RORγt LBD of 87 nM.

In test [1], `COc1nc2ccc(C(c3ccc(C)nc3C)(c3cnnn3C)N(C)C)cc2c(Cl)c1Cc1ccc(C(F)(F)F)cc1` (single isomer, unassigned) [Example 122b, 1-(4-Chloro-2-methoxy-3-(4-(trifluoromethyl)benzyl)quinolin-6-yl)-1-(2,6-dimethylpyridin-3-yl)-N,N-dimethyl-1-(1-methyl-1H-1,2,3-triazol-5-yl)methanamine•TFA] gave a Kd greater than 83000 nM. The same compound returned a half-inhibitory concentration (IC50) against human RORγt LBD of 1400 nM.

Regarding `CCN(CC)c1nc2ccc(C(O)(c3ccc(Cl)cc3)c3cncn3C)cc2c(C#N)c1Cc1ccc(-n2cccn2)cc1` (single isomer, unassigned) [Example 154b, 3-(4-(1H-pyrazol-1-yl)benzyl)-6-((4-chlorophenyl)(hydroxy)(1-methyl-1H-imidazol-5-yl)methyl)-2-(diethylamino)quinoline-4-carbonitrile], the inhibition at 6 µM on human RORγt LBD came out at 101%.

For `COc1c(Cc2ccccc2)c(C(F)(F)F)nc2ccc(C(O)(c3ccc(C(F)(F)F)nc3)c3cncn3C)cc12` (centres unmarked) [Example 106a, (3-Benzyl-4-methoxy-2-(trifluoromethyl)quinolin-6-yl)(1-methyl-1H-imidazol-5-yl)(6-(trifluoromethyl)pyridin-3-yl)methanol•TFA], the IC50 against human RORγt LBD is roughly 4000 nM.
